Measured values: paper PMC5576140 (Antiviral research, 2017)
Converted amounts (≈) assume the structure as drawn. Read-outs that look alike come from different tables or passages of the source.

Tests used:
[1] = Viability assay in MT-4 cell cultures; assay type: cell-based; conditions: human, MT-4 cells
HIV-1 X4LAI.04 = assay: HIV-1 inhibition in MT-4 cell cultures; assay type: cell-based; conditions: read-out: EC50 (MT-4)
M. tuberculosis MS-115 = assay: Anti-TB activity, growth in Middlebrook 7H9 medium, BACTEC MGIT960; assay type: cell-based; conditions: clinical MDR strain
M. tuberculosis H37Rv = assay: as above; assay type: cell-based; conditions: growth inhibition not less than 99%
[2] = assay type: in vitro ADME; conditions: for hydrolysis products found in human blood serum: HPLC-HRMS; for stability in human blood serum: 15 h
[3] = Chemical stability at pH 2.2, 7.4 and 9.0; assay type: physicochemical; conditions: pH 9.0 (glycine+NaOH)
[4] = growth inhibition not less than 99%
[5] = value in brackets, same MIC in μM
[6] = MT-4 cell cultures, HIV-1 X4LAI.04, 3 days, p24gag

Molecule: Cc1cn([C@H]2C[C@H](N=[N+]=[N-])[C@@H](CO)O2)c(=O)[nH]c1=O [AZT, 3′-azido-3′-deoxythymidine, reference compound]
- CC50 [1]: > 100 µM
- EC50 (HIV-1 X4LAI.04; Human immunodeficiency virus 1, MT4, 72 h): 0.03 µM

Molecule: CCCCCCCCCCc1cn(Cc2cn([C@H]3C[C@H](O)[C@@H](COC(=O)OC[C@H]4O[C@@H](n5cc(C)c(=O)[nH]c5=O)C[C@@H]4N=[N+]=[N-])O3)c(=O)[nH]c2=O)nn1 [Compound 1, 5′-O-[AZT-carbonyl]-5-[(4-decyl-1,2,3-triazol-1-yl)methyl]-2′-deoxyuridine]
- MIC (99) M.tuberculosis MS-115 (M. tuberculosis MS-115; [4]): 50 µg/mL
- MIC (99) M.tuberculosis MS-115 (M. tuberculosis MS-115; [5]): 67 µM
- MIC (99) M.tuberculosis H37Rv (M. tuberculosis H37Rv): 50 µg/mL (≈ 67.3 µM)
- hydrolysis products found in human blood serum [2]: both AZT and dU^R derivative
- EC50 (HIV-1 X4LAI.04; [6]): 0.39 µM

Molecule: CCCCCCCCCCc1cn(Cc2cn([C@H]3C[C@H](OC(=O)OC[C@H]4O[C@@H](n5cc(C)c(=O)[nH]c5=O)C[C@@H]4N=[N+]=[N-])[C@@H](CO)O3)c(=O)[nH]c2=O)nn1 [Compound 2, 3′-O-[AZT-carbonyl]-5-[(4-decyl-1,2,3-triazol-1-yl)methyl]-2′-deoxyuridine]
- MIC (99) M.tuberculosis MS-115 (M. tuberculosis MS-115; [4]): 20 µg/mL
- MIC (99) M.tuberculosis MS-115 (M. tuberculosis MS-115; [5]): 27 µM
- MIC (99) M.tuberculosis H37Rv (M. tuberculosis H37Rv): 10 µg/mL (≈ 13.5 µM)
- hydrolysis products found in human blood serum [2]: both AZT and dU^R derivative
- EC50 (HIV-1 X4LAI.04; [6]): 0.07 µM

Molecule: CCCCCCCCCCc1cn(Cc2cn([C@H]3C[C@H](OC(=O)OC[C@H]4O[C@@H](n5cc(C)c(=O)[nH]c5=O)C[C@@H]4N=[N+]=[N-])[C@@H](COC(=O)OC[C@H]4O[C@@H](n5cc(C)c(=O)[nH]c5=O)C[C@@H]4N=[N+]=[N-])O3)c(=O)[nH]c2=O)nn1 [Compound 3, 3′,5′-di-O-[AZT-carbonyl]-5-[(4-decyl-1,2,3-triazol-1-yl)methyl]-2′-deoxyuridine]
- MIC (99) M.tuberculosis MS-115 (M. tuberculosis MS-115; [4]): 10 µg/mL
- MIC (99) M.tuberculosis MS-115 (M. tuberculosis MS-115; [5]): 9.7 µM
- MIC (99) M.tuberculosis H37Rv (M. tuberculosis H37Rv): 20 µg/mL (≈ 19.3 µM)
- hydrolysis products found in human blood serum [2]: 1, 2, AZT, and dU^R
- EC50 (HIV-1 X4LAI.04; [6]): 0.08 µM

Molecule: CCCCOc1ccc(Nc2cn(C3C=CC(O)C3)c(=O)n(CCCn3c(=O)c(C)cn(C4CC(N=[N+]=[N-])C(CO)O4)c3=O)c2=O)cc1 (stereo not drawn) [Compound 5, [AZT]-N3-propyl-N3-[1-N-(4′-hydroxycyclopent-2′-enyl)-5-(p-butoxyphenylamino)]uracil]
- MIC (99) M.tuberculosis MS-115 (M. tuberculosis MS-115; [4]): 50 µg/mL
- MIC (99) M.tuberculosis MS-115 (M. tuberculosis MS-115; [5]): 75 µM
- stability to chemical hydrolysis [3]: stable
- MIC (99) M.tuberculosis H37Rv (M. tuberculosis H37Rv): > 50 µg/mL
- stability in human blood serum [2]: stable
- EC50 (HIV-1 X4LAI.04; [6]): 12.9 µM

Molecule: Cc1cn([C@H]2C[C@H](O)[C@@H](COP(=O)(O)O)O2)c(=O)[nH]c1=O [TMP, reference compound]
- T1/2 in human blood serum [2]: 20 min

Molecule: [AZT]-N3-propyl-N3-[1-N-[4′-(o,o-dimethylbenzyl)cyclopent-2′-enyl]uracil] [Compound 4]
- stability to chemical hydrolysis [3]: stable
- stability in human blood serum [2]: only slight debenzoylation at the carbocyclic fragment
- EC50 (HIV-1 X4LAI.04; [6]): 19.8 µM
